Measured values reported in patent US20230303562A1, “PYRAZOLE COMPOUND AND PREPARATION METHOD THEREFOR AND USE THEREOF” (Sichuan Kelun-Biotech Biopharmaceutical Co., Ltd., priority 2020, published 2023).

Experiments:
TGFβR1 = TGFβR1 (Homo sapiens (Human), UniProt P36897); assay: In vitro enzymatic activity inhibition test (TGFβR1), ADP-Glo Kinase Detection Kit; type: biochemical; conditions: estimated from inhibition at 1000, 100, 10 nM
Method: Experimental method: According to the instructions of ADP-Glo™ Kinase Detection Kit (Promega), the inhibitory effect of the compounds of the present invention on the enzymatic activity of TGFβR1 was determined, and the steps were as follows:
TGFβR1 enzyme were pre-incubated with different concentrations of test compounds (1000 nM, 100 nM, 10 nM) at 30° C. for 30 min, TGFβR1 peptide and adenosine triphosphate (ATP) were added to initiate the reaction. The incubation was performed at 30° C. for 3 h, followed by an addition of ADP-Glo™ reagent and incubated at room temperature for 90 min, kinase detection reagent was then added. Chemiluminescence signal values were detected after incubation at room temperature for another 30 min. Taking the solvent group (DMSO) as the negative control and the buffer group (without TGFβR1 enzyme) as the blank control, the percent inhibition rates of different concentrations of compounds were calculated according to the following formula: […]
When the percent inhibition rate was between 30% and 80%, the median inhibitory concentration (IC50) or range of the compound was calculated according to the following formula:
IC50=X×(1−percent inhibition rate (%))/percent inhibition rate (%), wherein X is the concentration of the compound at which the inhibition rate is between 30% and 80%.

TGFβR2 = TGFβR2 (Homo sapiens (Human), UniProt P37173); assay: In vitro enzymatic activity inhibition test (TGFβR2), ADP-Glo Kinase Detection Kit; type: biochemical; conditions: MBP substrate, estimated from inhibition at 1000, 100, 10 nM
Method: The chemiluminescence signal values were detected after incubation at room temperature for another 30 min.

hERG = hERG (Homo sapiens (Human), UniProt Q12809); assay: Biochemical hERG inhibition test (Predictor hERG fluorescence polarization kit); type: binding; conditions: competition with Tracer, tested at 10 μM and 1 μM
Method: Kit: Predictor™ hERG fluorescence polarization detection kit (ThermoFisher), the kit contained the following components: positive control compound hERG potassium channel blocker E4031; hERG cell membrane; affinity tracer Tracer; and hERG buffer.
hERG concentration: 1×; Tracer concentration: 1 nM; incubation time: 2 h; BMG PHERAstar FS FP.
The test was carried out according to the kit instructions, and the steps were as follows:
Positive control group: 30 μM positive control compound E4031 was used to replace the test compound, and the experimental method was the same as that of the test group.
Blank control group: hERG buffer was used to replace the test compound without the addition of hERG cell membrane, and the experimental method was the same as that of the test group.
According to the data ratio, the percent inhibition rates (%) of the compounds of the present invention to hERG at different concentrations were calculated, and the ranges of the half inhibitory concentration (IC50) of the compounds were determined.

[1] = Pharmacokinetics (PK) study in Balb/c mice; type: in vivo; conditions: female Balb/c mice; for F (bioavailability) / bioavailability: PO 10 mg/kg compared with IV 1 mg/kg; for bioavailability: mouse, read-out: F (bioavailability)
Method: The example compounds were administered to female Balb/c mice via intravenous injection (IV) and gastric perfusion (PO), respectively, and their pharmacokinetic properties were investigated. The administered doses for IV and PO were 1 mg/kg and 10 mg/kg, respectively. The solvent for IV was 5% DMSO+5% Solutol (15-hydroxystearic acid polyethylene glycol ester)+90% normal saline, the solvent for PO was 0.5% MC ([…] methylcellulose). Whole blood samples were collected at various time points after IV and PO administration, and subjected to EDTA-K2 anticoagulation before test.
Whole blood samples were processed by precipitating proteins and then subjected to LC-MS/MS analysis. The pharmacokinetic parameters were calculated by the non-compartmental model using WinNonlin 6.3 software, and the results were shown in Table 6 below.

Chain of TGFβR1 (P36897 34-503): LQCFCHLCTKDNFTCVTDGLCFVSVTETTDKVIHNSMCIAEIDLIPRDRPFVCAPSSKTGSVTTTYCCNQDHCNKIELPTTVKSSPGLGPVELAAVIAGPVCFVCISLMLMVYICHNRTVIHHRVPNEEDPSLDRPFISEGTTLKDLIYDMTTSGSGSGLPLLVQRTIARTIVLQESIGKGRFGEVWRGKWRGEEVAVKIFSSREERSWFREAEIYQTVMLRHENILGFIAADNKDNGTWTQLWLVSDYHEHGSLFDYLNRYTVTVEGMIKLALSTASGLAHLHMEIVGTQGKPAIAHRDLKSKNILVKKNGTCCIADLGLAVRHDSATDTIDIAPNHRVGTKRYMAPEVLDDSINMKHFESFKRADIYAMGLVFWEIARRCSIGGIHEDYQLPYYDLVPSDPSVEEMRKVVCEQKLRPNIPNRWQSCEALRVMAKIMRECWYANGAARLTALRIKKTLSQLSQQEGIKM
Chain of TGFβR2 (P37173 23-567): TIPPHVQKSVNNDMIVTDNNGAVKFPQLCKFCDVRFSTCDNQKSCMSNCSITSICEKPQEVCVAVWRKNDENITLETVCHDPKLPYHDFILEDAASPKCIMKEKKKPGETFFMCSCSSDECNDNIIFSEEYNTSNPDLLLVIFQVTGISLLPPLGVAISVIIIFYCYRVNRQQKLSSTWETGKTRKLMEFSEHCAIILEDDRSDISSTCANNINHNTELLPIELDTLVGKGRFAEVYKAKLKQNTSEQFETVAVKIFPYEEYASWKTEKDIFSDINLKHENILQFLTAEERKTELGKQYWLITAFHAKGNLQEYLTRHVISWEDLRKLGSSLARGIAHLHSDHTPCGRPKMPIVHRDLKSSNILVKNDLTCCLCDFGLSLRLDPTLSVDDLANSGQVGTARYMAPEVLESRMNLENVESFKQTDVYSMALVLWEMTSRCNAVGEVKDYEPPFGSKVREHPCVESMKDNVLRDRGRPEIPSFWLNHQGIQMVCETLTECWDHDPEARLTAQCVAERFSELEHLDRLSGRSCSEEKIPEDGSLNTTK
Chain of hERG (Q12809 whole entry): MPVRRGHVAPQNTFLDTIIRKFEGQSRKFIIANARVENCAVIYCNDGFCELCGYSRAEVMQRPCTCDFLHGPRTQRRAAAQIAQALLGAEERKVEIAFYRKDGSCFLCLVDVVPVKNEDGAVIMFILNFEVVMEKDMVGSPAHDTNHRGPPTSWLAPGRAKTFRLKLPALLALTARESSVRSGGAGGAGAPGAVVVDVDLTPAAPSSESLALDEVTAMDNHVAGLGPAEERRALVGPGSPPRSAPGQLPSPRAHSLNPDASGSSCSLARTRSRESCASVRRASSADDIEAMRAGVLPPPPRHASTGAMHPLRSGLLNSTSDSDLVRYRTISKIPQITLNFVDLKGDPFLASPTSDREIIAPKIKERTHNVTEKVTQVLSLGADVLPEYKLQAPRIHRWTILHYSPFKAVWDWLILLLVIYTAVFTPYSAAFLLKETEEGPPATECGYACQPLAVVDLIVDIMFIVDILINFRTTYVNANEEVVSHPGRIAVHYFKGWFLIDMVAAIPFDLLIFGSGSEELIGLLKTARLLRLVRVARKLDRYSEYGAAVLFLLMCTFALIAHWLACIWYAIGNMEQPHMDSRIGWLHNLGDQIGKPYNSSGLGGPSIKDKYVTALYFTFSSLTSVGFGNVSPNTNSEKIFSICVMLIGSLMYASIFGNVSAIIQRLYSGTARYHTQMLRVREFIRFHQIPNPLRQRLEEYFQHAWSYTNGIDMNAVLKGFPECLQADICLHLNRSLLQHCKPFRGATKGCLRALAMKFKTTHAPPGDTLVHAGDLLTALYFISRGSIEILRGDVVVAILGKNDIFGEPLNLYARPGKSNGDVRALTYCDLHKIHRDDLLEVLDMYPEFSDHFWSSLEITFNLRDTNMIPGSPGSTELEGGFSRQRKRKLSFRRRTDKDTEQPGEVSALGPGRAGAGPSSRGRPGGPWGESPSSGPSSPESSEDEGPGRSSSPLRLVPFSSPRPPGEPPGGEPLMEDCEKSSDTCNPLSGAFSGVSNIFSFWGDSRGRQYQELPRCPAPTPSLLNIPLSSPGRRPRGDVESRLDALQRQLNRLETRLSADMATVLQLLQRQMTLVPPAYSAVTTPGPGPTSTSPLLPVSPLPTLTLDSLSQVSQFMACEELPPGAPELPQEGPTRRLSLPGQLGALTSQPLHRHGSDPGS

With `Cc1cccc(-n2nccc2-c2ccc3ncsc3c2)n1` [Example 1, 6-(1-(6-methylpyridin-2-yl)-1H-pyrazol-5-yl)benzo[d]thiazole] the IC50 (TGFβR1) was 48.6 ± 18.6 nM, the IC50 (TGFβR2) was > 1000 nM and the IC50 (hERG) was > 10 µM.

With `Cc1cccc(-n2nc3c(c2-c2ccn4ncc(C(N)=O)c4c2)CCC3)n1` [Example 6, 5-[2-(6-methylpyridin-2-yl)-2,4,5,6-tetrahydrocyclopenteno[c]pyrazol-3-yl]pyrazolo[1,5-a]pyridine-3-carboxamide] the AUClast ([1]; IV, 1 mg/kg, whole blood) was 578 ± 4 ng·h/mL, the Cl ([1]; IV, 1 mg/kg, whole blood) was 28.4 ± 0.3 mL/min/kg and the Cmax ([1]; IV, 1 mg/kg, whole blood) was 1163 ± 58 ng/mL. For the same compound, the “F (bioavailability)” value [1] was 61.4 ± 9.5%, the “F (bioavailability)” value ([1]; listed as Example VI) was 61.4% and the AUClast ([1]; PO, 10 mg/kg, whole blood) was 3586 ± 563 ng·h/mL. The Cmax ([1]; PO, 10 mg/kg, whole blood) was 7440 ± 226 ng/mL, the T1/2 ([1]; PO, 10 mg/kg, whole blood) was 27.6 ± 11.4 min and the T1/2 ([1]; PO, 10 mg/kg, whole blood, listed as Example VI) was 27.6 min.

Compound `CNc1cc(-c2ccn3ncc(C(N)=O)c3c2)n(-c2cccc(C)n2)n1` [Example 8, 5-(3-(methylamino)-1-(6-methylpyridin-2-yl)-1H-pyrazol-5-yl)pyrazolo[1,5-a]pyridine-3-carboxamide] has a T1/2 ([1]; PO, 10 mg/kg, whole blood) of 108 ± 21 min and a bioavailability ([1]; whole blood) of 98.1%.

Compound `Cc1cccc(-n2nccc2-c2ccn3ncc(C(N)=O)c3c2)n1` [Example 12, 5-(1-(6-methylpyridin-2-yl)-1H-pyrazol-5-yl)pyrazolo[1,5-a]pyridine-3-carboxamide] has a T1/2 ([1]; PO, 10 mg/kg, whole blood) of 31.2 ± 10.8 min and a bioavailability ([1]; whole blood) of 52.1%.
